Type in all cases: in vivo
The subject of test [1] is Echinochloa crus-galli. Description: Test Example 1: herbicidal effect test by soil treatment in paddy field. Particulars: 120 g/10a, paddy soil treatment just after sowing, 14 days after treatment. In short, it runs like this:
(§1)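 Weed suppression (%) was calculated at 14 days from mean plant dry weight relative to untreated pots, with duplicate pots per rate. The compound went into the flood water as a diluted emulsifiable concentrate (120 g a.i./10 are) immediately after sowing seeds 0–1 cm deep. Pots held ~3 cm water in a glasshouse.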

Test [2] concerns Lindernia pyxidaria. Described as above. Particulars: 120 g/10a, paddy soil treatment just after sowing, 14 days after treatment. In a few lines:
as §1

Test [3] has as its system Monochoria vaginalis. Described as above. The conditions noted are these: 120 g/10a, paddy soil treatment just after sowing, 14 days after treatment. In short, it runs like this: as §1
For test [4], the system named is Scirpus juncoides. Described as above. The conditions noted are these: 120 g/10a, paddy soil treatment just after sowing, 14 days after treatment. In a few lines:
as §1

Test [5] relates to Echinochloa crus-galli. The test is described as follows: Test Example 2: herbicidal effect test by treatment during growing period in paddy field. Particulars: treatment 7 days after sowing, 120 g/10a, evaluated 14 days after treatment. In short, it runs like this:
(§2)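 Paddy soil in flooded pots (~3 cm water), 30 seeds per species sown 0–1 cm deep, greenhouse. Emulsifiable concentrate diluted in water and dripped into the water 7 days after sowing at 120 g a.i. per 10 are. Suppression (%) from dry weight vs untreated, 14 days post-treatment, two replicates.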

In test [6] the test system is Lindernia pyxidaria. The test is described as above. Particulars: treatment 7 days after sowing, 120 g/10a, evaluated 14 days after treatment. In a few lines:
as §2

Test [7] deals with Monochoria vaginalis. Described as above. The conditions noted are these: treatment 7 days after sowing, 120 g/10a, evaluated 14 days after treatment. In short, it runs like this:
as §2

Test [8] deals with Scirpus juncoides. The test is described as above. Particulars: treatment 7 days after sowing, 120 g/10a, evaluated 14 days after treatment. In short, it runs like this:
as §2

Test [9] deals with Amaranthus viridis. The test is described as follows: Test Example 3: herbicidal effect test by soil treatment in upland field. The conditions noted are these: upland field soil treatment 1 day after sowing; 120 g/10a; evaluated 14 days after treatment. As for the experimental part: (§3) This test was performed with two replications per one formulation concentration plot, and 14 days after the formulation treatments, the weed suppression rate (%) was determined according to the following equation (Math. 1). Weed suppression rate (%)=(1−an average dry weight (g) of plants in treated plots/an average dry weight (g) of plants in untreated plots)×100 [Math. 1]
(§4) A pot having a size of 36 cm^2 was filled with field soil (alluvial soil) and after uniformly mixing the soil of the surface layer of 1 cm with 20 grains of each weed seed of crabgrass, Echinochloa crus-galli, Chenopodium album and Amaranthus viridis, the surface layer was pressed lightly. One day after the sowing, an emulsifiable concentrate prepared according to Formulation Example 5 by using the compound shown in Table 7 below was diluted with water, and the water-diluted formulation was sprayed on the soil surface at a ratio of 100 liter per 10 are. The application rate of the active ingredient, by conversion, corresponded to 120 g per 10 are. Fourteen days after the formulation treatment, the herbicidal effect was evaluated by the same criteria as in Test Example 1.

Test [10] has as its system Chenopodium album. The description is as above. Particulars: upland field soil treatment 1 day after sowing; 120 g/10a; evaluated 14 days after treatment. On the procedure: as §3, §4
Test [11] concerns Echinochloa crus-galli. The description is as above. The conditions noted are these: upland field soil treatment 1 day after sowing; 120 g/10a; evaluated 14 days after treatment. As for the experimental part: as §3, §4
The subject of test [12] is crabgrass. Described as above. The conditions noted are these: upland field soil treatment 1 day after sowing; 120 g/10a; evaluated 14 days after treatment. On the procedure:
as §3, §4

For test [13], the system named is Amaranthus viridis. Description: Test Example 4: herbicidal effect test by foliage treatment in upland field. The conditions noted are these: upland field foliage treatment 7 days after sowing; 120 g/10a; evaluated 14 days after treatment. In a few lines:
(§5)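 Suppression rate (%) derives from mean plant dry weight in treated versus untreated plots, measured 14 days after spraying, with two replications per plot. The emulsifiable concentrate was applied 7 days after sowing at 120 g active ingredient per 10 are.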

For test [14], the system named is Chenopodium album. Described as above. Particulars: upland field foliage treatment 7 days after sowing; 120 g/10a; evaluated 14 days after treatment. In short, it runs like this:
as §5

Test [15] has as its system Echinochloa crus-galli. The description is as above. Particulars: upland field foliage treatment 7 days after sowing; 120 g/10a; evaluated 14 days after treatment. In a few lines:
as §5

In test [16] the test system is crabgrass. The description is as above. The conditions noted are these: upland field foliage treatment 7 days after sowing; 120 g/10a; evaluated 14 days after treatment. In a few lines: as §5

For the molecule `CC(C)N(C(=O)n1ncn(S(=O)(=O)C(C)C)c1=O)c1ccc(Cl)nc1Cl` [Compound 1-98], the “weed suppression rate, Echinochloa crus-galli” value in the test on Echinochloa crus-galli [1] and in the test on Echinochloa crus-galli [5] was 100% each time. Also, the “weed suppression rate, Lindemia pyxidaria” value with Lindernia pyxidaria [2] was found to be 90%; in the test on Lindernia pyxidaria [6], 80%. Moreover, the “weed suppression rate, Monochoria vaginalis” value in the test on Monochoria vaginalis [3] and with Monochoria vaginalis [7] was 90% throughout. In addition, the “weed suppression rate, Scirpus juncoides” value in the test with Scirpus juncoides [4] and in the test on Scirpus juncoides [8] was 90% each time. Also, the “herbicidal effect (weed suppression rate), Amaranthus viridis” value (“herbicidal effect … Amaranthus viridis” for short) in the test with Amaranthus viridis [9] and with Amaranthus viridis [13] was 90% in each case. Moreover, the “herbicidal effect (weed suppression rate), Chenopodium album” value (“herbicidal effect … Chenopodium album” for short) in the test on Chenopodium album [10] and in the test on Chenopodium album [14] was 80% each time. For the same molecule, the “herbicidal effect (weed suppression rate), Echinochloa crus-galli” value (“herbicidal effect … Echinochloa crus-galli” below) with Echinochloa crus-galli [11] and with Echinochloa crus-galli [15] was 80% throughout. The “herbicidal effect (weed suppression rate), Crabgrass” value (“herbicidal effect … Crabgrass” below) in the test on crabgrass [12] and in the test on crabgrass [16] was 90% throughout.

As for `CCC(C)S(=O)(=O)n1cnn(C(=O)N(c2ccc(F)cc2F)C(C)C)c1=O` (stereo not shown) [Compound 1-101], the “weed suppression rate, Echinochloa crus-galli” value in the test with Echinochloa crus-galli [1] and in the test on Echinochloa crus-galli [5] was 90% throughout. The “weed suppression rate, Lindemia pyxidaria” value in the test with Lindernia pyxidaria [2] and with Lindernia pyxidaria [6] was 80% in each case. The “weed suppression rate, Monochoria vaginalis” value in the test with Monochoria vaginalis [3] and in the test with Monochoria vaginalis [7] was 80% throughout. Further, the “weed suppression rate, Scirpus juncoides” value in the test with Scirpus juncoides [4] and in the test on Scirpus juncoides [8] was 90% in each case. The “herbicidal effect … Amaranthus viridis” value in the test with Amaranthus viridis [9] and in the test with Amaranthus viridis [13] was 90% each time. In addition, the “herbicidal effect … Chenopodium album” value in the test with Chenopodium album [10] and in the test on Chenopodium album [14] was 80% each time. The “herbicidal effect … Echinochloa crus-galli” value in the test with Echinochloa crus-galli [11] and in the test with Echinochloa crus-galli [15] was 80% in each case. Further, the “herbicidal effect … Crabgrass” value in the test with crabgrass [12] and in the test on crabgrass [16] was 90% in each case.

As to `C=CS(=O)(=O)n1cnn(C(=O)N(c2ccc(F)cc2F)C(C)C)c1=O` [Compound 1-142], the “weed suppression rate, Echinochloa crus-galli” value in the test with Echinochloa crus-galli [1] was determined as 100%; with Echinochloa crus-galli [5], 90%. Moreover, the “weed suppression rate, Lindemia pyxidaria” value amounted to 100% in the test with Lindernia pyxidaria [2] and 80% in the test on Lindernia pyxidaria [6]. Further, the “weed suppression rate, Monochoria vaginalis” value is reported as 100% in the test on Monochoria vaginalis [3] and 80% with Monochoria vaginalis [7]. For the same molecule, the “weed suppression rate, Scirpus juncoides” value is 100% with Scirpus juncoides [4] and 90% in the test on Scirpus juncoides [8]. The “herbicidal effect … Amaranthus viridis” value with Amaranthus viridis [9] was 100%; with Amaranthus viridis [13], 90%. In addition, the “herbicidal effect … Chenopodium album” value in the test with Chenopodium album [10] was 100%; in the test with Chenopodium album [14], 80%. The “herbicidal effect … Echinochloa crus-galli” value in the test with Echinochloa crus-galli [11] worked out at 100%; with Echinochloa crus-galli [15], 80%. Moreover, the entries for the “herbicidal effect … Crabgrass” value with crabgrass [12] and in the test with crabgrass [16] were 100% and 90%, respectively.

Regarding `CC(C)N(C(=O)n1ncn(S(=O)(=O)C2CC2)c1=O)c1ccccc1F` [Compound 1-169], the “weed suppression rate, Echinochloa crus-galli” value with Echinochloa crus-galli [1] and in the test with Echinochloa crus-galli [5] was 100% each time. Further, the “weed suppression rate, Lindemia pyxidaria” value was 90% in the test on Lindernia pyxidaria [2] and 80% in the test on Lindernia pyxidaria [6]. Besides, the “weed suppression rate, Monochoria vaginalis” value in the test with Monochoria vaginalis [3] and with Monochoria vaginalis [7] was 90% in each case. In addition, the entries for the “weed suppression rate, Scirpus juncoides” value in the test on Scirpus juncoides [4] and in the test with Scirpus juncoides [8] were 90% and 80%, respectively. In addition, the “herbicidal effect … Amaranthus viridis” value with Amaranthus viridis [9] and in the test on Amaranthus viridis [13] was 90% in each case. Besides, the “herbicidal effect … Chenopodium album” value with Chenopodium album [10] and with Chenopodium album [14] was 80% in each case. Also, the “herbicidal effect … Echinochloa crus-galli” value in the test on Echinochloa crus-galli [11] and in the test on Echinochloa crus-galli [15] was 80% throughout. Moreover, the “herbicidal effect … Crabgrass” value with crabgrass [12] and in the test on crabgrass [16] was 90% throughout.

`CC(C)N(C(=O)n1ncn(S(=O)(=O)C2CC2)c1=O)c1ccc(F)cc1` [Compound 1-171]: the “weed suppression rate, Echinochloa crus-galli” value in the test on Echinochloa crus-galli [1] and in the test on Echinochloa crus-galli [5] was 100% throughout. Further, the figures for the “weed suppression rate, Lindemia pyxidaria” value in the test with Lindernia pyxidaria [2] and in the test on Lindernia pyxidaria [6] were 100% and 90%, respectively. Besides, the “weed suppression rate, Monochoria vaginalis” value worked out at 100% with Monochoria vaginalis [3] and 90% in the test on Monochoria vaginalis [7]. Moreover, the “weed suppression rate, Scirpus juncoides” value in the test with Scirpus juncoides [4] worked out at 100%; with Scirpus juncoides [8] it was 90%. Also, the “herbicidal effect … Amaranthus viridis” value with Amaranthus viridis [9] and in the test on Amaranthus viridis [13] was 90% each time. The “herbicidal effect … Chenopodium album” value in the test on Chenopodium album [10] is reported as 100%; in the test on Chenopodium album [14], 80%. In addition, the “herbicidal effect … Echinochloa crus-galli” value in the test on Echinochloa crus-galli [11] worked out at 100%; in the test with Echinochloa crus-galli [15], 80%. The “herbicidal effect … Crabgrass” value with crabgrass [12] stood at 100%; in the test on crabgrass [16], 90%.

As for `CC(C)N(C(=O)n1ncn(S(=O)(=O)C2CC2)c1=O)c1cccc(F)c1F` [Compound 1-198], the “weed suppression rate, Echinochloa crus-galli” value in the test with Echinochloa crus-galli [1] and in the test on Echinochloa crus-galli [5] was 100% throughout. Further, the “weed suppression rate, Lindemia pyxidaria” value with Lindernia pyxidaria [2] and in the test on Lindernia pyxidaria [6] was 100% each time. Also, the “weed suppression rate, Monochoria vaginalis” value in the test with Monochoria vaginalis [3] and with Monochoria vaginalis [7] was 100% each time. Moreover, the “weed suppression rate, Scirpus juncoides” value was 100% with Scirpus juncoides [4] and 80% with Scirpus juncoides [8]. Also, the “herbicidal effect … Amaranthus viridis” value in the test with Amaranthus viridis [9] was 100%; in the test with Amaranthus viridis [13], 80%. Moreover, the “herbicidal effect … Chenopodium album” value in the test on Chenopodium album [10] turned out to be 100%; with Chenopodium album [14], 80%. For the same molecule, the “herbicidal effect … Echinochloa crus-galli” value in the test with Echinochloa crus-galli [11] and with Echinochloa crus-galli [15] was 100% in each case. For the same molecule, the “herbicidal effect … Crabgrass” value in the test on crabgrass [12] and in the test with crabgrass [16] was 100% each time.

Regarding `CC(C)N(C(=O)n1ncn(S(=O)(=O)C2CC2)c1=O)c1c(F)cccc1F` [Compound 1-200], the “weed suppression rate, Echinochloa crus-galli” value in the test with Echinochloa crus-galli [1] and in the test with Echinochloa crus-galli [5] was 100% in each case. Moreover, the “weed suppression rate, Lindemia pyxidaria” value is reported as 100% in the test on Lindernia pyxidaria [2] and 80% in the test with Lindernia pyxidaria [6]. Further, the figures for the “weed suppression rate, Monochoria vaginalis” value in the test on Monochoria vaginalis [3] and with Monochoria vaginalis [7] were 80% and 90%, respectively. Further, the “weed suppression rate, Scirpus juncoides” value in the test with Scirpus juncoides [4] and with Scirpus juncoides [8] was 100% throughout. In addition, the “herbicidal effect … Amaranthus viridis” value in the test on Amaranthus viridis [9] came to 40%; in the test on Amaranthus viridis [13], 80%. Besides, the entries for the “herbicidal effect … Chenopodium album” value in the test with Chenopodium album [10] and in the test with Chenopodium album [14] were 40% and 70%, respectively. Further, the “herbicidal effect … Echinochloa crus-galli” value in the test with Echinochloa crus-galli [11] and with Echinochloa crus-galli [15] was 100% each time. Further, the “herbicidal effect … Crabgrass” value in the test with crabgrass [12] and with crabgrass [16] was 100% in each case.

The record behind these values is patent publication US11076595B2, “1-(n,n-disubstituted carbamoyl) 4-(substituted sulfonyl)triazolin-5-one derivative, 4-(n,n-disubstituted carbamoyl) 1-(substituted sulfonyl)triazolin-5-one derivative, and herbicide containing said derivative as active ingredient” (HOKKO CHEMICAL INDUSTRY CO., LTD., priority 2017, dated 2021).
